Like-named read-outs stand apart in the source and are kept apart here.
What was measured:
Format in all cases: cell-based
TPC2 [1] = molecular target: T1, TPC2 (Homo sapiens, UniProt Q8NHX9, L11A/L12A); test: Fura-2 Ca2+ imaging, block of TPC2-A1-N response at […]
T1 construct: gene TPCN2; hTPC2^L11A/L12A (plasma membrane targeted)

TPC2 [2] = molecular target: T2, TPC2 (Mus musculus, UniProt Q8BWC0); test: endo-lysosomal patch-clamp, […], with TPC2 KO control; parameters: gene Tpcn2; mTPC2; endogenous TPC2 in alveolar macrophages
TPC2 [3] = molecular target: T3, TPC2 (Homo sapiens, UniProt Q8NHX9); test: endo-lysosomal patch-clamp (also FLIPR Ca2+ assay, EC50 […])
T3 construct: gene TPCN2; hTPC2, C-terminal YFP

TPC2 [4] = molecular target: T2, TPC2; test: GCaMP Ca2+ imaging and endo-lysosomal patch-clamp, […]; parameters: gene Tpcn2; MmTPC2-GCaMP6s; mTPC2
TPC2 [5] = molecular target: T3, TPC2; test: endo-lysosomal patch-clamp (also FLIPR Ca2+ assay, EC50 […]); remark: listed apart in the source

T1 sequence (Q8NHX9 whole entry L11A/L12A): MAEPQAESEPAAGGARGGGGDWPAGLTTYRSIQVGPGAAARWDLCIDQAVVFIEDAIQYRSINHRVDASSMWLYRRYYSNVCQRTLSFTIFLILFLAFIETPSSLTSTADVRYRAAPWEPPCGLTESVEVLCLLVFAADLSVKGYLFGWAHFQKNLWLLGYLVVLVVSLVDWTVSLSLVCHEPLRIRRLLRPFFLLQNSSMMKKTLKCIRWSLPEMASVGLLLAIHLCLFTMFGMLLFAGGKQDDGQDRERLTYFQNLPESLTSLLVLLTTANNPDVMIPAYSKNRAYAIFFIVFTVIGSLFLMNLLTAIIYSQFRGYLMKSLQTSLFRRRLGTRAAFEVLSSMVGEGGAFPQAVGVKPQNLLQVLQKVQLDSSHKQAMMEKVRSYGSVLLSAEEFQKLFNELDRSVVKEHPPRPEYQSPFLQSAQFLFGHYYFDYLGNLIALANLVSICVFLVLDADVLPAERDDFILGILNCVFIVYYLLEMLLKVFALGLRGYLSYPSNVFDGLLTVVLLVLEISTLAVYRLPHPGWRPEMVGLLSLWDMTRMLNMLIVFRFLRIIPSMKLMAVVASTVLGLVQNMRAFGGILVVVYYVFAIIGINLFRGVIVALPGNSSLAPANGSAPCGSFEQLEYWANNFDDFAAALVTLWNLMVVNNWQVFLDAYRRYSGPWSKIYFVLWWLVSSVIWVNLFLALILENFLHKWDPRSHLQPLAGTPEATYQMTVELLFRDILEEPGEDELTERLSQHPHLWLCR
T3 sequence (Q8NHX9 whole entry): as the sequence (Q8NHX9 whole entry L11A/L12A) above, with A11L, A12L counted along it
T2 sequence (Q8BWC0 whole entry): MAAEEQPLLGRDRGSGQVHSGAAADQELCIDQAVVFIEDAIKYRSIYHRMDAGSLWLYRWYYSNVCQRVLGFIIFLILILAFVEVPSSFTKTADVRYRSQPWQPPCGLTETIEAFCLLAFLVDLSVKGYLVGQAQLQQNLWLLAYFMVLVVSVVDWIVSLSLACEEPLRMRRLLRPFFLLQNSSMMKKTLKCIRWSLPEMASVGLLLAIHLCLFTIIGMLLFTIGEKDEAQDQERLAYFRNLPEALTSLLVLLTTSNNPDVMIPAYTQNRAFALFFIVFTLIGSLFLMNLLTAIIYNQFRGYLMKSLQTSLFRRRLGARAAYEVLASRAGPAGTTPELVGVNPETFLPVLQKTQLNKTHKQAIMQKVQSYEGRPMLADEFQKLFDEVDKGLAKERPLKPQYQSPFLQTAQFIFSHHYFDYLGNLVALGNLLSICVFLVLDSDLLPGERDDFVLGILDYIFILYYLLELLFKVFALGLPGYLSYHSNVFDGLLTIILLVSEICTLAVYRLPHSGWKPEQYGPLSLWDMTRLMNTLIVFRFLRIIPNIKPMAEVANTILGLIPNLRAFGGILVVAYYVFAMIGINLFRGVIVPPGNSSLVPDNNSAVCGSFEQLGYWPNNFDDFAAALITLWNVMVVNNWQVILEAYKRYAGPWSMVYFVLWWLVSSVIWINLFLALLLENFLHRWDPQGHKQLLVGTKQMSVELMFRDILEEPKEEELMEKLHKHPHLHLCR

Q: `O=C(c1ccc(OCCN2CCCCC2)cc1)c1c(-c2ccc(O)cc2)sc2cc(O)ccc12` [Ral, raloxifene] was tested. Which “Fura-2 Ca2+ imaging, block of TPC2-A1-N response at 10 μM” value (shortened to “Fura-2 Ca2+ imaging, block”) (TPC2 [1]) did it give?
A: Its value is “responses to TPC2-A1-N were selectively blocked by the recently identified TPC2 blockers tetrandrine (Tet), raloxifene (Ral), and fluphenazine (Flu)”.

Q: With `OCCN1CCN(CCCN2c3ccccc3Sc3ccc(C(F)(F)F)cc32)CC1` [Flu, fluphenazine] as the molecule, how does the “Fura-2 Ca2+ imaging, block” value (TPC2 [1]) read?
A: The value was “responses to TPC2-A1-N were selectively blocked by the recently identified TPC2 blockers tetrandrine (Tet), raloxifene (Ral), and fluphenazine (Flu)”.

Q: How did the “endo-lysosomal patch-clamp, 10 μM, with TPC2 KO control” value (TPC2 [2]) turn out when `Cc1c(C(=O)O)cc(-c2cc(Br)ccc2OC(F)(F)F)n1CC1CCCCC1` [TPC2-A1-P, 5-(5-Bromo-2-(trifluoromethoxy)phenyl)−1-(cyclohexylmethyl)−2-methyl-1H-pyrrole-3-carboxylic acid] was run?
A: The value was “both TPC2-A1-N and TPC2-A1-P evoked measurable endogenous TPC2-like currents in macrophages from wild-type animals”.

Q: What about the EC50 (TPC2 [3]) of the same molecule?
A: Its EC50 is 600 nM.

Q: How did the “Fura-2 Ca2+ imaging, block” value (TPC2 [1]) turn out when `COc1ccc2cc1Oc1ccc(cc1)C[C@H]1c3cc(c(OC)cc3CCN1C)Oc1c(OC)c(OC)cc3c1[C@H](C2)N(C)CC3` [Tet, tetrandrine] was run?
A: The value was “responses to TPC2-A1-N were selectively blocked by the recently identified TPC2 blockers tetrandrine (Tet), raloxifene (Ral), and fluphenazine (Flu)”.

Q: Which results are given for `N#CC(C(=O)Nc1ccc(C(F)(F)F)cc1)=C(O)c1cc(Cl)cc(Cl)c1` [TPC2-A1-N, 2-Cyano-3-(3,5-dichlorophenyl)−3-hydroxy-N-(4-(trifluoromethyl)phenyl)acrylamide]?
A: GCaMP Ca2+ imaging and endo-lysosomal patch-clamp, 10 μM (TPC2 [4]): mouse TPC2 fused to GCaMP6 (MmTPC2^GCaMP) confirmed that TPC2-A1-N evoked larger responses than TPC2-A1-P; EC50 (TPC2 [5]): 600 nM

From article PMC7108868, “Agonist-mediated switching of ion selectivity in TPC2 differentially promotes lysosomal function” (eLife, 2020)
